Source: the CheMixHub viscosity set

Assay: xn = mol fraction of the nth substance listed

C1CCC(C2CCCCC2)CC1 + C1CC[C@H]2CCCC[C@@H]2C1
viscosity [mPa·s], 102 kPa
Settings | x2 = 0.1185 | x2 = 0.2312 | x2 = 0.3405 | x2 = 0.4451 | x2 = 0.546 | x2 = 0.6433 | x2 = 0.7374 | x2 = 0.828 | x2 = 0.9154
293.15 K | 3.72 | 3.43 | 3.17 | 2.96 | 2.77 | 2.6 | 2.45 | 2.33 | 2.21
303.15 K | 2.95 | 2.74 | 2.56 | 2.4 | 2.27 | 2.15 | 2.03 | 1.94 | 1.85
313.15 K | 2.39 | 2.24 | 2.11 | 1.99 | 1.89 | 1.8 | 1.71 | 1.64 | 1.57
323.15 K | 1.98 | 1.87 | 1.77 | 1.68 | 1.6 | 1.52 | 1.46 | 1.4 | 1.34

CCCC(N)=O + O
298.15 K, 101 kPa
Settings | viscosity [mPa·s]
x1 = 0.00213 | 0.906
x1 = 0.0179 | 1.122
x1 = 0.0403 | 1.458
x1 = 0.04319 | 1.511

Oc1cccc(O)c1 + CCO
Settings | viscosity [mPa·s]
323.15 K, 101 kPa, x1 = 0.07 | 1.265

O=C(O)CC(O)C(=O)O (stereo not given) + C[N+](C)(C)CCO.[Cl-]
Settings | viscosity [mPa·s]
293.15 K, 101 kPa, x1 = 0.5 | 24490
293.2 K, 101.3 kPa, x2 = 0.602 | 8896
293.2 K, 101.3 kPa, x2 = 0.666 | 3341
298 K, 101.3 kPa, x2 = 0.5 | 2082
298.15 K, 101 kPa, x1 = 0.5 | 22090
298.15 K, 101.33 kPa, x1 = 0.7 | 530.2
303.15 K, 101 kPa, x1 = 0.5 | 13390
303.2 K, 101.3 kPa, x2 = 0.602 | 5432
303.2 K, 101.3 kPa, x2 = 0.666 | 2810
308.15 K, 101 kPa, x1 = 0.5 | 8995
313.15 K, 101 kPa, x1 = 0.5 | 5859
313.2 K, 101.3 kPa, x2 = 0.505 | 6421
313.2 K, 101.3 kPa, x2 = 0.602 | 2827
313.2 K, 101.3 kPa, x2 = 0.666 | 1676
318.15 K, 101 kPa, x1 = 0.5 | 4121
323 K, 101.3 kPa, x2 = 0.5 | 610
323.15 K, 101 kPa, x1 = 0.5 | 2924

CC1(C)S[C@@H]2[C@H](NC(=O)[C@H](N)c3ccc(O)cc3)C(=O)N2[C@H]1C(=O)O + O
viscosity [mPa·s], 101 kPa
Settings | x1 = 9e-06 | x1 = 1.8e-05 | x1 = 2e-05 | x1 = 3.2e-05 | x1 = 3.6e-05 | x1 = 5e-05 | x1 = 6.8e-05
305.15 K | 0.7741 | 0.7672 | 0.7642 | 0.7659 | 0.7708 | 0.7668 | 0.7686
310.15 K | 0.7042 | 0.7023 | 0.6984 | 0.6991 | 0.7032 | 0.7014 | 0.7026
315.15 K | 0.6458 | 0.6448 | 0.6386 | 0.6392 | 0.6469 | 0.6401 | 0.6421

CCCC[N+](CCCC)(CCCC)CCCC.[Br-] + OCCOCCO
viscosity [mPa·s]
Settings | 293.15 K | 303.15 K | 313.15 K | 323.15 K
100 kPa, x1 = 0.2 | – | 265.6 | 165.5 | 92.86
101 kPa, x2 = 0.667 | 203.9 | 150.6 | 87.28 | 57.39

NC(N)=S + O
viscosity [mPa·s], 100 kPa
Settings | 293.15 K | 298.15 K | 303.15 K | 308.15 K | 313.15 K
x1 = 0.00045 | 1.01 | 0.907 | 0.817 | 0.735 | 0.668
x1 = 0.0009 | 1.019 | 0.916 | 0.823 | 0.747 | 0.677
x1 = 0.0013 | 1.029 | 0.935 | 0.847 | 0.763 | 0.702

CCCCCCCCCCCC(=O)O + CCCCCCCCCC(=O)O
100 kPa, x1 = 0.33
Settings | viscosity [mPa·s]
293.15 K | 12.89
298.15 K | 10.76
303.15 K | 9.199
308.15 K | 7.939
313.15 K | 6.909
318.15 K | 6.059
323.15 K | 5.349

CCCCC(=O)O + CCCCCCCCCCO
viscosity [mPa·s], 100 kPa
Settings | x1 = 0.0851 | x1 = 0.1742 | x1 = 0.2512 | x1 = 0.3616 | x1 = 0.4363 | x1 = 0.5587 | x1 = 0.6618 | x1 = 0.7474 | x1 = 0.8618 | x1 = 0.9312
293.15 K | 12.76 | 11.18 | 9.99 | 8.58 | 7.71 | 6.4 | 5.35 | 4.5 | 3.44 | 2.83
303.15 K | 8.73 | 7.68 | 6.9 | 5.97 | 5.41 | 4.56 | 3.89 | 3.35 | 2.65 | 2.25
313.15 K | 6.17 | 5.54 | 5.06 | 4.45 | 4.07 | 3.47 | 2.99 | 2.61 | 2.12 | 1.83
323.15 K | 4.49 | 4.09 | 3.79 | 3.38 | 3.12 | 2.7 | 2.37 | 2.1 | 1.75 | 1.55

CCCCOCCOCCOCCCC + CCCO
298.15 K, 101.33 kPa
Settings | viscosity [mPa·s]
x1 = 0.0034 | 1.944
x1 = 0.0097 | 1.937
x1 = 0.0158 | 1.93
x1 = 0.0252 | 1.917
x1 = 0.0426 | 1.895
x1 = 0.0734 | 1.866
x1 = 0.0979 | 1.849
x1 = 0.1509 | 1.832
x1 = 0.1955 | 1.824
x1 = 0.2419 | 1.827
x1 = 0.2937 | 1.837
x1 = 0.3481 | 1.851
x1 = 0.3959 | 1.868
x1 = 0.4376 | 1.884
x1 = 0.4827 | 1.901
x1 = 0.54 | 1.925
x1 = 0.5983 | 1.949
x1 = 0.6416 | 1.968
x1 = 0.6954 | 1.99
x1 = 0.7531 | 2.016
x1 = 0.8095 | 2.039
x1 = 0.8656 | 2.061
x1 = 0.9083 | 2.079
x1 = 0.9447 | 2.096
x1 = 0.9742 | 2.111

CCCCC(=O)O + CCCCCCCCCO
viscosity [mPa·s], 100 kPa
Settings | x1 = 0.0827 | x1 = 0.1635 | x1 = 0.2318 | x1 = 0.3519 | x1 = 0.4517 | x1 = 0.5569 | x1 = 0.6472 | x1 = 0.7328 | x1 = 0.8691 | x1 = 0.9502
293.15 K | 10.14 | 8.95 | 8.08 | 6.89 | 6.05 | 5.25 | 4.6 | 4 | 3.09 | 2.56
303.15 K | 6.95 | 6.12 | 5.53 | 4.73 | 4.16 | 3.64 | 3.22 | 2.86 | 2.32 | 2.03
313.15 K | 5.09 | 4.64 | 4.3 | 3.78 | 3.39 | 2.99 | 2.67 | 2.38 | 1.95 | 1.71
323.15 K | 3.76 | 3.47 | 3.26 | 2.92 | 2.66 | 2.39 | 2.17 | 1.96 | 1.64 | 1.46

Oc1cccc(O)c1O + CC[N+](CC)(CC)CC.[Br-]
101.3 kPa, x2 = 0.333
Settings | viscosity [mPa·s]
293.15 K | 46000
298.15 K | 32000
303.15 K | 23000
308.15 K | 16000
313.15 K | 10500
318.15 K | 7500
323.15 K | 5500
